Read-outs that look alike come from different tables or passages of the source.
Legend:
[1] = Stability, 7 days at T = 60° C.; format: physicochemical
[2] = test system: Sca1+ marrow cells, expressing p185-T315I^BCR/ABL; assay: BCR/ABL-induced chronic myelogenous leukemia model; format: in vivo, C57BL/6N line mice; conditions: for Average life: oral, control 55.0 ± 6.3
Procedure: To assess the efficacy of the free base and methanesulfonic acid salt of 3-(1,2,4-triazolo[4,3-a]pyridine-3-ylethynyl)-4-methyl-N-(4-((4-methylpiperazine-1-yl)methyl)-3-trifluoromethylphenyl)benzamide for treating chronic myelogenous leukemia (CML) studies of the compounds' activity on the BCR/ABL-induced CML-like disease in mice were conducted. In the study C57BL/6N line mice were used. […] The efficacy of therapy with 3-(1,2,4-triazolo[4,3-a]pyridine-3-ylethynyl)-4-methyl-N-(4-((4-methylpiperazine-1-yl)methyl)-3-trifluoromethylphenyl)benzamide administered orally as a free base and methanesulfonic acid salt was studied.

[3] = molecular target: EPHA2 (Homo sapiens, UniProt P29317); assay: Human kinase panel at 100 nM; format: biochemical
[4] = molecular target: EPHA8 (Homo sapiens, UniProt P29322); assay: Human kinase panel at 100 nM; format: biochemical
[5] = molecular target: FLT4/VEGFR3 (Homo sapiens, UniProt P35916); assay: Human kinase panel at 100 nM; format: biochemical
Chain of FLT4/VEGFR3 (P35916 25-1363): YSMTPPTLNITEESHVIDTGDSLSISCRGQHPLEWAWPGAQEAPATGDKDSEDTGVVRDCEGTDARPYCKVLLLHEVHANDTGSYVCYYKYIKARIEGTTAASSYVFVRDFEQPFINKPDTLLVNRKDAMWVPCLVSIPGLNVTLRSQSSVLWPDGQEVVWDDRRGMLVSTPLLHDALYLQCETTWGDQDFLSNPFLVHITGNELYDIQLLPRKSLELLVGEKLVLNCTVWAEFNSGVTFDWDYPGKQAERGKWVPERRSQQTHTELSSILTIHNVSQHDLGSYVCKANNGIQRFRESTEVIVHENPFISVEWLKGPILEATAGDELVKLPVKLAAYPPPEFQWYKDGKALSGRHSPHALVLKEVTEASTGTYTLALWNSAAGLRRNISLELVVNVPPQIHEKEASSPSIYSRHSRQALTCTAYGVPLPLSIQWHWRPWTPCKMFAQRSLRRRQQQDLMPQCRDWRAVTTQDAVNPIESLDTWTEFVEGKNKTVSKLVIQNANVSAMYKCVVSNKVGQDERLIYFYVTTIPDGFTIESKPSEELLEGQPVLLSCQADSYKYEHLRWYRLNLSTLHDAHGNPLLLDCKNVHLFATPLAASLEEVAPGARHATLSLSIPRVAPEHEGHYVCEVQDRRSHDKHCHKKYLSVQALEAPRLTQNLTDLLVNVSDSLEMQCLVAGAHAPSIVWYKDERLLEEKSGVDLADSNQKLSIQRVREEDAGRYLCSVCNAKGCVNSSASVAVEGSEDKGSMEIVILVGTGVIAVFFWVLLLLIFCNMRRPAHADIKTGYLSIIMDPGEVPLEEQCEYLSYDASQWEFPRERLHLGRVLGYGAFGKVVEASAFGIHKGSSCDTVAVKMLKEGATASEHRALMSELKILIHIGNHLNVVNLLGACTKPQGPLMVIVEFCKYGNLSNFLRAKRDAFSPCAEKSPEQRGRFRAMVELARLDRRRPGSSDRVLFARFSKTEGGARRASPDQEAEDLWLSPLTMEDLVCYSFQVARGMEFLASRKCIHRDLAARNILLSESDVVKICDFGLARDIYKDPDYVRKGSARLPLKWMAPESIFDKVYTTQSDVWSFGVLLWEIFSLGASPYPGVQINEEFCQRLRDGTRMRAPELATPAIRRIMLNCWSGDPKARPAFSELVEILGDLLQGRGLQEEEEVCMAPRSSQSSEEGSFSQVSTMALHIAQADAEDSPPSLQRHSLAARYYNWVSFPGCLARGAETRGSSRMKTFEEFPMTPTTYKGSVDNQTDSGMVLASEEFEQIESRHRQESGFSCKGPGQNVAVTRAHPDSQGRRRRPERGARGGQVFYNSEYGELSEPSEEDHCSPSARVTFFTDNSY

[6] = molecular target: FYN (Homo sapiens, UniProt P06241); assay: Human kinase panel at 100 nM; format: biochemical
[7] = molecular target: P38a/MAPK14 (Homo sapiens, UniProt Q16539); assay: Human kinase panel at 100 nM; format: biochemical
Chain of P38a/MAPK14 (Q16539 whole entry): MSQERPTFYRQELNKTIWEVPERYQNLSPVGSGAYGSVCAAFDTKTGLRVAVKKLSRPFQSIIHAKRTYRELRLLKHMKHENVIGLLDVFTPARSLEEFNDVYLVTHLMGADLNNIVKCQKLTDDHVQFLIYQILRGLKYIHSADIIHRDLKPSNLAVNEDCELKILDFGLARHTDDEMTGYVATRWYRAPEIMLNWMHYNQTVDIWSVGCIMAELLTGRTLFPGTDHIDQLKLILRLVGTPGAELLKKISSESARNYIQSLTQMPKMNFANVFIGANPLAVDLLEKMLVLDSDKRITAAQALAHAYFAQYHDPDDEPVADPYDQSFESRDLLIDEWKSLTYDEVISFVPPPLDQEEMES

[8] = molecular target: PDGFRb (Homo sapiens, UniProt P09619); assay: Human kinase panel at 100 nM; format: biochemical
[9] = molecular target: ZAK/MLTK (Homo sapiens, UniProt Q9NYL2); assay: Human kinase panel at 100 nM; format: biochemical
Chain of ZAK/MLTK (Q9NYL2 whole entry): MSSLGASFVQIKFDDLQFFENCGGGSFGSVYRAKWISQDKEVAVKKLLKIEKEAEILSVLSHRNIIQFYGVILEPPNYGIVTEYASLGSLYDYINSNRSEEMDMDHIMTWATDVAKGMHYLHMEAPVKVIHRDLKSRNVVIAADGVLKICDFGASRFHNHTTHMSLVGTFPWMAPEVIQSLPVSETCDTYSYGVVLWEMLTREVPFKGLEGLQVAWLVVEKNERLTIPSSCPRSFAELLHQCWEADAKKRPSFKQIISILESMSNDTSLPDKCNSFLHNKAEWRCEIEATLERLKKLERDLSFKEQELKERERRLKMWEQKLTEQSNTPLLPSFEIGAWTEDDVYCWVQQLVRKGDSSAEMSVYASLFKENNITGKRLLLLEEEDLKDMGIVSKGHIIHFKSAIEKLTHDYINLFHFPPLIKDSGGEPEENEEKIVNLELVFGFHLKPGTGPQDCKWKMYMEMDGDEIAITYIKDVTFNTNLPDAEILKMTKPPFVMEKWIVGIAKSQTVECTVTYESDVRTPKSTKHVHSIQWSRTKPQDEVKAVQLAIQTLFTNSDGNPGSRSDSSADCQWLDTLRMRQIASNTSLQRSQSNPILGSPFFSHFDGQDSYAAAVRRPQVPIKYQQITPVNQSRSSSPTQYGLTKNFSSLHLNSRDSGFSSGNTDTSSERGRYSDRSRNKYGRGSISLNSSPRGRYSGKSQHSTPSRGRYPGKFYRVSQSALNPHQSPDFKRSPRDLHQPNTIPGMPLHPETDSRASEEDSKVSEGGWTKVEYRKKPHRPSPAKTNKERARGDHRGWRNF

[10] = test system: BV-173; assay: Cytotoxicity, Ph+ CML model cell line; format: cell-based; conditions: Homo sapiens, read-out: IC50 (toxicity)
[11] = test system: Tom-1; assay: Cytotoxicity, Ph+ ALL model cell line; format: cell-based; conditions: Homo sapiens, read-out: IC50 (toxicity)
[12] = test system: SupB15; assay: Cytotoxicity, Ph+ ALL model cell line; format: cell-based; conditions: Homo sapiens, SUP-B15, read-out: IC50 (toxicity)
[13] = test system: BaF3/BCR-ABL T315I; assay: Toxicity to transduced BaF3 model tumor cell line; format: cell-based, murine; conditions: Mus musculus
[14] = test system: EL4; assay: Cytotoxicity, lymphoma line; format: cell-based, human
[15] = test system: K562 line cells; assay: Xenograft chronic leukemia model; format: in vivo, thymus-deprived mice; conditions: oral, 14 days, follow-up 240 days
Text: The therapy was started after the size of the tumor had reached 500 mm^3, therapy duration was 14 days, the follow-up period was 240 days.

[16] = in vivo; conditions: for Vd / half-life / clearance / AUC / bioavailability: in vivo; for Vd: read-out: apparent volume of distribution Vd; for half-life: read-out: half-life period (converted); for clearance: intravenous administration; for bioavailability: read-out: bioavailability F
Text: Clearance following intravenous administration is quite high: 2.12 L/h/kg for dogs, 1.61 L/h/kg for rats. A large apparent volume of distribution (Vd=14.1 L/kg for dogs, 6.16 L/kg for rats) indicates extensive drug distribution in tissues.

[17] = in vivo; format: in vivo; conditions: mice
[18] = Drug distribution in rat tissues; format: in vivo
[19] = molecular target: CYP3A4 (Homo sapiens, UniProt P08684); assay: Metabolism study using cytochrome enzyme drugs; format: in vitro ADME
[20] = molecular target: CYP1A2 (Homo sapiens, UniProt P05177); assay: Metabolism study using cytochrome enzyme drugs; format: in vitro ADME
[21] = molecular target: CYP2C8 (Homo sapiens, UniProt P10632); assay: Metabolism study using cytochrome enzyme drugs; format: in vitro ADME; conditions: 2C8
Chain of CYP2C8 (P10632 whole entry): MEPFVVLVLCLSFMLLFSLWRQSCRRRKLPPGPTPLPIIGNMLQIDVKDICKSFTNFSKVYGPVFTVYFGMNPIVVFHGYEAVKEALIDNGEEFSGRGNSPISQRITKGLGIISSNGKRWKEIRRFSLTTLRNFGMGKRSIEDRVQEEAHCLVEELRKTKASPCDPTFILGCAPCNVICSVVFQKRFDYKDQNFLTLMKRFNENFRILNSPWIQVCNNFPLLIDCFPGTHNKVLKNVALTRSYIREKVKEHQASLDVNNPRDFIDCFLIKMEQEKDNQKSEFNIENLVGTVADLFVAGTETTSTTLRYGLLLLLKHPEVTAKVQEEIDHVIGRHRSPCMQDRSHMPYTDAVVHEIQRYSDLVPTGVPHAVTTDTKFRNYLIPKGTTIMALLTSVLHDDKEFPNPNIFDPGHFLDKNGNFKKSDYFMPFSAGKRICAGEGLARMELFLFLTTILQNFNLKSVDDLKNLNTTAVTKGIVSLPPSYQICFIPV

[22] = molecular target: CYP2C19 (Homo sapiens, UniProt P33261); assay: Metabolism study using cytochrome enzyme drugs; format: in vitro ADME; conditions: 2C19
[23] = molecular target: potassium hERG channel (Homo sapiens, UniProt Q12809); assay: Effect on the ion hERG channel; format: cell-based; conditions: tested at 0.1-10 μM, mesylate salt
Chain of potassium hERG channel (Q12809 whole entry): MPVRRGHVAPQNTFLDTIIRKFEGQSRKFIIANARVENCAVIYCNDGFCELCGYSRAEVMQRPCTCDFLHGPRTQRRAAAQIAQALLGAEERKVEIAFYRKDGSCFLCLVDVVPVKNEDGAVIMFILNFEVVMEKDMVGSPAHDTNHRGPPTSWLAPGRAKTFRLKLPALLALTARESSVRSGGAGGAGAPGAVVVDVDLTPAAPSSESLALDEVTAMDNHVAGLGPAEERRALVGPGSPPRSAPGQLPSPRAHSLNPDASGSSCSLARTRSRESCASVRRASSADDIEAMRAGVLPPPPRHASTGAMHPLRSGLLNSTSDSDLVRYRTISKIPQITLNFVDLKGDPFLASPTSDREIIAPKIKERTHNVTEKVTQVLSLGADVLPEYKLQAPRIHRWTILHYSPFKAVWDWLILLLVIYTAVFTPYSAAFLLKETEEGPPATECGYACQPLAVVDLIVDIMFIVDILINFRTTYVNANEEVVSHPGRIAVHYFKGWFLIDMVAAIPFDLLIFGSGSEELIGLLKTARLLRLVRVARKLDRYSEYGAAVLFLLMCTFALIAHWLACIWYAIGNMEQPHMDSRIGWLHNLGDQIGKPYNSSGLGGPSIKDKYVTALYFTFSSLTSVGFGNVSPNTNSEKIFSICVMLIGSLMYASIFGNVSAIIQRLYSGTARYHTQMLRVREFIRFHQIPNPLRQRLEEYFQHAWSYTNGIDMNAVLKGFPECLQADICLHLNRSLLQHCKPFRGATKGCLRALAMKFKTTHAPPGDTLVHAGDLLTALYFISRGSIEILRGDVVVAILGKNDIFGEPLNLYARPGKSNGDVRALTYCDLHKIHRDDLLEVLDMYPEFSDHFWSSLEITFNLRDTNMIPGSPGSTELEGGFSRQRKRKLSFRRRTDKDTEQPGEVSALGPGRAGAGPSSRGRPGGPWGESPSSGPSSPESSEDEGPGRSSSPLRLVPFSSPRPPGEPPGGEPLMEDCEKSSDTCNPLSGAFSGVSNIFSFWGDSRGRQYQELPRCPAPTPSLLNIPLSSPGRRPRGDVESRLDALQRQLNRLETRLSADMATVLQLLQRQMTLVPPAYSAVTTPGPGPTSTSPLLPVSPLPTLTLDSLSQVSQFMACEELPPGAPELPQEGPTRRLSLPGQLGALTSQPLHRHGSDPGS

[24] = test system: mice; assay: Acute toxicity studies, mice; format: in vivo
[25] = test system: rats; assay: Acute toxicity studies, rats; format: in vivo
[26] = Daily intragastric administration during 28 days, rats; conditions: rat, in vivo, po; for MTD at 28 days: daily intragastric
[27] = molecular target: Bcr-Abl (Homo sapiens, UniProt P00519); assay: Bcr-Abl tyrosine kinase enzyme activity
[28] = molecular target: Bcr-Abl (F317I) (Homo sapiens, UniProt P00519, F317I, form not given); assay: Bcr-Abl tyrosine kinase enzyme activity
[29] = molecular target: Bcr-Abl (G250E) (Homo sapiens, UniProt P00519, G250E, form not given); assay: Bcr-Abl tyrosine kinase enzyme activity

Chain of EPHA2 (P29317 24-976): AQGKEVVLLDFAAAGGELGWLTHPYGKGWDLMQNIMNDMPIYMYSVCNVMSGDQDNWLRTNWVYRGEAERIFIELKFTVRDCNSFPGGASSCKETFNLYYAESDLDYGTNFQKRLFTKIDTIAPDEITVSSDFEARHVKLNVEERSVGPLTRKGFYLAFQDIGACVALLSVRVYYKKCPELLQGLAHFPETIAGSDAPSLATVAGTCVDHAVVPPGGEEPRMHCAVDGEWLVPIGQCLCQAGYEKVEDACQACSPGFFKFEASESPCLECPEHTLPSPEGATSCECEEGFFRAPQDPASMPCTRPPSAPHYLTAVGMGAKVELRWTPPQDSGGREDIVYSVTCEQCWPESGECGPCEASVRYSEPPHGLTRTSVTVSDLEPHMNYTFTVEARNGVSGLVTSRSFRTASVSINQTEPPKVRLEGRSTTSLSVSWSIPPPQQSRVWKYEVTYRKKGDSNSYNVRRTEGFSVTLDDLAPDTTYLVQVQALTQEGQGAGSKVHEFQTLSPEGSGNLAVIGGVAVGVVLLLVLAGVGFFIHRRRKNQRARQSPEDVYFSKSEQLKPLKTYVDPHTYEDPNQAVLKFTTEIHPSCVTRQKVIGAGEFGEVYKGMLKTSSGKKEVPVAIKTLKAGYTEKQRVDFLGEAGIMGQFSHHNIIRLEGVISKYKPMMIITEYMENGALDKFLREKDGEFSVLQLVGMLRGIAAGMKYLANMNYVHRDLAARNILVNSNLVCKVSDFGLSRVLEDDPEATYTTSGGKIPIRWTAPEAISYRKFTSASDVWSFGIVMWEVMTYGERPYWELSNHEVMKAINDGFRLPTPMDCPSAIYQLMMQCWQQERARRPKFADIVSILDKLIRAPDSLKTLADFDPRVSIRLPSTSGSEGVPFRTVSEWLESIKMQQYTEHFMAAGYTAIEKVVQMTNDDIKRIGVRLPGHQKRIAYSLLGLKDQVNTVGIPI

## CS(=O)(=O)O.Cc1ccc(C(=O)Nc2ccc(CN3CCN(C)CC3)c(C(F)(F)F)c2)cc1C#Cc1nnc2ccccn12 [methanesulfonic acid salt, 3-(1,2,4-triazolo[4,3-a]pyridine-3-ylethynyl)-4-methyl-N-(4-((4-methylpiperazin-1-yl)methyl)-3-trifluoromethylphenyl)benzamide mono methanesulfonic acid salt]
[1]; 7 days at T = 60° C.
  Crystallinity in 7 days: Cryst.
  Relative peak area, in 7 days: 99.7%
[1]; before storage
  Relative peak area, initial: 99.7%
[1]; kept seven days at 60° C.
  content of impurities: remained constant
[2]; 40 mg/kg (34 mg/kg as free base)
  therapeutic effect compared with the free base: same therapeutic effect as administration of 50 mg/kg of a free base
[2]; 59 mg/kg (50 mg/kg as free base)
  increase of animals' lives compared to the control group: almost two-fold increase
[2]; 10 mg/kg salt (8.5 as free base)
  Average life: 65.5 ± 6.7 days
[2]; 25 mg/kg salt (21 as free base)
  Average life: 73.9 ± 7.1 days
[2]; 40 mg/kg salt (34 as free base)
  Average life: 90.3 ± 6.9 days
[2]; 59 mg/kg salt (50 as free base)
  Average life: 104.5 ± 5.2 days
[3]
  inhibition at 0.1 µM: > 50%
[4]
  inhibition at 0.1 µM: > 50%
[5]
  inhibition at 0.1 µM: > 50%
[6]
  inhibition at 0.1 µM: > 50%
[7]
  inhibition at 0.1 µM: > 50%
[8]
  inhibition at 0.1 µM: > 50%
[9]
  inhibition at 0.1 µM: > 50%
[10]
  IC50: 5 nM
[11]
  IC50: 5 nM
[12]
  IC50: 50 nM
[13]
  IC50: 75 nM
[14]
  cytotoxicity: showed cytotoxicity
[15]; 25 mg/kg (21 as free base) per day
  effect on the tumor size: decrease of the tumor size to an immeasurable size with subsequent proliferation after the 35th day of follow-up
[15]; 40 mg/kg (34 as free base) per day
  effect on the tumor size: elimination of the tumor without relapse during all 240 days of follow-up in all mice
[16]; dog, dogs
  Vd: 14.1 L/kg
  half-life: ~7 h
  clearance: 35.3 mL/min/kg
[16]; dog, oral, dogs, 2 mg/kg
  AUC: 420 ng·h/mL
[16]; dog, oral, dogs, 22 mg/kg
  AUC: 5480 ng·h/mL
[16]; dog, oral, dogs, 45 mg/kg
  AUC: 5170 ng·h/mL
[16]; dog, oral, dogs, 2 to 22 mg/kg (2 to 19 mg/kg as free base)
  bioavailability: 45.9 to 66.1%
[16]; oral, dogs, 2 to 45 mg/kg
  maximum plasma concentration: 31.8 to 224 ng/mL
  time to maximum plasma concentration: 3 to 8.5 h
[16]; oral, rats, 5 mg/kg
  maximum concentration: 72 ng/mL
[16]; oral, rats, 80 mg/kg
  maximum concentration: 1250 ng/mL
[16]; oral, rats, 5 to 80 mg/kg
  time to maximum concentration: 2.3 to 5.3 h
[16]; rat, rats
  clearance: 26.8 mL/min/kg
  Vd: 6.16 L/kg
  half-life: ~3 h
[16]; rat, oral, rats, 5 mg/kg
  AUC: 430 ng·h/mL
[16]; rat, oral, rats, 80 mg/kg
  AUC: 21100 ng·h/mL
[16]; rat, oral, rats, 5 to 80 mg/kg (4.2 to 68 mg/kg as free base)
  bioavailability: 13.8 to 59.5%
[17]; mouse, in vivo, read-out: half-life period (converted)
  half-life: ~3 h
[17]; mouse, in vivo, oral, 5 mg/kg
  AUC: 372 ng·h/mL
[17]; mouse, in vivo, oral, 50 mg/kg
  AUC: 12100 ng·h/mL
[17]; oral, 5 mg/kg
  maximum concentration: 82 ng/mL
[17]; oral, 50 mg/kg
  maximum concentration: 1,099 ng/mL
[17]; oral, 5 to 50 mg/kg
  period of absorption to maximum concentration: 2 to 4 h
[18]; bone marrow, read-out: concentration in bone marrow relative to plasma
  Kp: 27
[18]; brain, read-out: exposure in brain relative to blood plasma exposure
  Kp: ~0.2
[18]; kidneys, read-out: concentration in kidneys relative to plasma
  Kp: 34
[18]; liver, read-out: concentration in liver relative to plasma
  Kp: 21
[18]; lungs, read-out: concentration in lungs relative to blood plasma
  Kp: ~71
[18]; spleen, read-out: concentration in spleen relative to plasma
  Kp: 45
[19]
  participation of the isoform in metabolism: involves participation
[20]
  participation of the isoform in metabolism: does not involve
[21]
  participation of the isoform in metabolism: does not involve
[22]
  participation of the isoform in metabolism: does not involve
[23]
  IC50: 7800 nM
[24]; calculated as the free base
  LD10: 678 mg/kg
[24]; dose of the salt
  LD10: 800 mg/kg
[25]; calculated as a free base
  LD10: 1,695 mg/kg
[25]; dose of the salt
  LD10: 2,000 mg/kg
[26]; Day 28, dose of 50 mg/kg daily intragastric
  Cmax: 661 ± 289 ng/mL
[26]; Day 28, dose of 50 mg/kg daily intragastric, read-out: AUC24
  AUC: 8600 ng·h/mL
[26]; 2 separate studies, dose of the salt
  MTD at 28 days: 50 to 73 mg/kg
[26]; calculated as a free base
  MTD at 28 days: 42 to 62 mg/kg
[27]
  IC50: 0.49 to 3.1 nM
[28]
  IC50: 2 nM
[29]
  IC50: 7.4 nM

— patent US11225474B2, “Crystalline salt forms of 3-(1,2,4-triazolo[4,3-a]pyridine-3-ylethynyl)-4-methyl-N-(4-((4-methylpiperazin-1-yl)methyl)-3-trifluoromethylphenyl)benzamide for medical application” (priority 2016, dated 2022)
